# In publication PMC3875306 (Bioorganic & medicinal chemistry letters, 2013):
# Tests used:
# human mGlu1 = human mGlu1 (Homo sapiens, UniProt Q13255); test: Calcium mobilization mGlu1 assay; details: for LLE (ligand-lipophilicity efficiency): LLE = pIC50 - cLogP; for preference in mGlu1 NAM activity for the R-enantiomer versus the S-enantiomer: 15 vs 14, 17 vs 16
# [1] = system: acoustic prepulse inhibition models; details: cited from earlier work
# [2] = system: squirrel monkey models of addiction; details: cited from earlier work
# rat models of addiction = details: cited from earlier work
# rat model of anxiety = details: cited from earlier work
# [3] = system: rat models of neuropathic pain; details: cited from earlier work
# [4] = system: rat models of post-operative pain; details: cited from earlier work
# mGlu2–8 = details: at 10 µM
# in vivo = details: male, Sprague-Dawley, rat, plasma, iv, 0.2 mg/kg
# rat mGlu1 = rat mGlu1 (Rattus norvegicus, UniProt P23385); test: Functional cell based assay against rat mGlu1; details: HEK 293A TREx cells expressing rat mGlu1
# Sequence of rat mGlu1 (P23385 19-1199): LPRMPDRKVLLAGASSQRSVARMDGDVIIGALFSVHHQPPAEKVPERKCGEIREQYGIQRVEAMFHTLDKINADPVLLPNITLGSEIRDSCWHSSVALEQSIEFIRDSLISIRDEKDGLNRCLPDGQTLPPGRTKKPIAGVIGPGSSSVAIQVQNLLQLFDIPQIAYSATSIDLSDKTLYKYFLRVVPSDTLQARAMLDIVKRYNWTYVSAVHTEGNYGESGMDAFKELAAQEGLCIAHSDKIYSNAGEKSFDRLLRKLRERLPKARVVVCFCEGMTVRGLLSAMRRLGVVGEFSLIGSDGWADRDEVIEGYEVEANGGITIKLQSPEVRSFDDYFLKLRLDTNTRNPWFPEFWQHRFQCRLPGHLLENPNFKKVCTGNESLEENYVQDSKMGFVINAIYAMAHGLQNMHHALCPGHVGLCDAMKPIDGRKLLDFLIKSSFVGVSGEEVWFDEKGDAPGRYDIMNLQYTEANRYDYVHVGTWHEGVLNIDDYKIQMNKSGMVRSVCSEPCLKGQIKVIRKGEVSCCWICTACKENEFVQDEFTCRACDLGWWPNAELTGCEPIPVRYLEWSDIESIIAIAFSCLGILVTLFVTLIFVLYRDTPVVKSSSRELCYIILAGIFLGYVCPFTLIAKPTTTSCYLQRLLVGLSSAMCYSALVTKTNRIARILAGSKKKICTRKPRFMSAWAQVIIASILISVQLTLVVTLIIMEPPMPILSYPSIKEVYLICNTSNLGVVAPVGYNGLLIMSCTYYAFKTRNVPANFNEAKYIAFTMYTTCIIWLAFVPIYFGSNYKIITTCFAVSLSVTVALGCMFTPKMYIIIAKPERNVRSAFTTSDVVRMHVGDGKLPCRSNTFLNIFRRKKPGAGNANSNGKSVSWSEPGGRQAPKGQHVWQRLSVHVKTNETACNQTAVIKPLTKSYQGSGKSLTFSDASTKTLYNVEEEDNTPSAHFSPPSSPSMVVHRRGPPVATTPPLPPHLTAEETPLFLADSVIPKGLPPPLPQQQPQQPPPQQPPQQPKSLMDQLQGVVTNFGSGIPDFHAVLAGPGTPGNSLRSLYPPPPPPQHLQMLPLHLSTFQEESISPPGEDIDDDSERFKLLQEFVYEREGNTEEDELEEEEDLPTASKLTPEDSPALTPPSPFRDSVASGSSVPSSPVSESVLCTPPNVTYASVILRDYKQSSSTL
# [5] = IV dosing, rat, in words
# [6] = system: 68 clinically relevant GPCRs, ion channels, kinases, and transporters; test: Radioligand binding assay panel; details: 10 µM; significant = more than 50% inhibition of radioligand binding
# Sequence of human mGlu1 (Q13255 19-1194): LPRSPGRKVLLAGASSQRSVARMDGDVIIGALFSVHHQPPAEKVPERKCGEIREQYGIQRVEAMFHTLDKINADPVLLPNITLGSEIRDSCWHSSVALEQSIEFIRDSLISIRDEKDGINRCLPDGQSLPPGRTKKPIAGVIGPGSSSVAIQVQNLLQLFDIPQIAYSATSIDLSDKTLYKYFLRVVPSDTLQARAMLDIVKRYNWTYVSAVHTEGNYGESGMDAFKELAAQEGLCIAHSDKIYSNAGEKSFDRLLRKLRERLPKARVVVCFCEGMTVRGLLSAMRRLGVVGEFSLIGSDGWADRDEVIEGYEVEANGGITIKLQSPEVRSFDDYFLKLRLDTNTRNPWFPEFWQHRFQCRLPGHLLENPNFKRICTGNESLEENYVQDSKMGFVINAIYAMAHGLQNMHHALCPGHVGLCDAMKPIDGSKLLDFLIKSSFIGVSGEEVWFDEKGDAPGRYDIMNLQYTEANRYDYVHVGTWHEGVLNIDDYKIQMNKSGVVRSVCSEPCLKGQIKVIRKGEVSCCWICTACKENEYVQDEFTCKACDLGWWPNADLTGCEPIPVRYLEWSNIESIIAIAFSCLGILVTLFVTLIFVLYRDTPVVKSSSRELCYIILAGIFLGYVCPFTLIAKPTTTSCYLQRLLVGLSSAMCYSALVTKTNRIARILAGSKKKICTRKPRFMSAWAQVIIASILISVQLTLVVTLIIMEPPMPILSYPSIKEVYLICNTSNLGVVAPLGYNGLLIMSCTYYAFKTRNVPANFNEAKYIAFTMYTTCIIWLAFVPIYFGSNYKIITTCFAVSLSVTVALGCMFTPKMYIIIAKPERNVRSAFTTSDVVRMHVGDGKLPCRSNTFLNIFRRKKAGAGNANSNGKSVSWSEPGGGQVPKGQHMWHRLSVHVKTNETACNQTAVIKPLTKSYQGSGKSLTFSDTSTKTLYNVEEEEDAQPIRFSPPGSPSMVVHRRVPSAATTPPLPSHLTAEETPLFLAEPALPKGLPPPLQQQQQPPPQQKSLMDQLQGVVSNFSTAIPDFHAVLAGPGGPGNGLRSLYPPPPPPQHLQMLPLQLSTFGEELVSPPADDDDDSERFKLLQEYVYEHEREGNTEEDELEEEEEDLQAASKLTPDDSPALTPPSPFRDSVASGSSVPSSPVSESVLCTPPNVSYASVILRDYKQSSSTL
structure (smiles),measurement,setting,value
C[C@@H]1CN(c2ccncc2C#N)CCN1C(=O)C12CC3CC(CC(C3)C1)C2 [Compound 53],LLE (ligand-lipophilicity efficiency),human mGlu1,2.89
C[C@@H]1CN(c2ccccn2)CCN1C(=O)C12CC3CC(CC(C3)C1)C2 [Compound 15],preference in mGlu1 NAM activity for the R-enantiomer versus the S-enantiomer,human mGlu1,15 fold
C[C@@H]1CN(c2ccccc2C#N)CCN1C(=O)C12CC3CC(CC(C3)C1)C2 [Compound 46],LLE (ligand-lipophilicity efficiency),human mGlu1,1.82
C[C@@H]1CN(C(=O)C23CC4CC(CC(C4)C2)C3)CCN1c1ccncc1 [Compound 39],mGlu1 activity at the top concentration tested,human mGlu1; 30 µM,no activity
COC1CCC(C(=O)c2ccc3nc4c(cc3c2)CCCO4)CC1 (centres unmarked) [Compound 1],"antipsychotic activity, acoustic prepulse inhibition models, mice",[1],Antipsychotic activity
same,efficacy in squirrel monkey models of addiction,[2],efficacious
same,efficacy in rat models of addiction,rat models of addiction,efficacious
same,efficacy in a rat model of anxiety,rat model of anxiety,efficacious
C[C@@H]1CN(c2ccc(F)cn2)CCN1C(=O)C12CC3CC(CC(C3)C1)C2 [Compound 49],LLE (ligand-lipophilicity efficiency),human mGlu1,1.73
C[C@@H]1CN(c2cccc(F)n2)CCN1C(=O)C12CC3CC(CC(C3)C1)C2 [Compound 48],LLE (ligand-lipophilicity efficiency),human mGlu1,1.85
C[C@@H]1CN(C(=O)C23CC4CC(CC(C4)C2)C3)CCN1c1ccccn1 [Compound 17],preference in mGlu1 NAM activity for the R-enantiomer versus the S-enantiomer,human mGlu1,sixfold
CN(C)c1ccnc2sc3c(=O)n(N4CCCCCC4)cnc3c12 [Compound 2],analgesia in rat models of neuropathic pain,[3],analgesic
same,analgesia in rat models of post-operative pain,[4],analgesic
C[C@@H]1CN(c2ncccc2C#N)CCN1C(=O)C12CC3CC(CC(C3)C1)C2 [Compound 51],LLE (ligand-lipophilicity efficiency),human mGlu1,2.24
C[C@@H]1CN(c2cccnc2C#N)CCN1C(=O)C12CC3CC(CC(C3)C1)C2 [Compound 54],activity against mGlu2–8,mGlu2–8,inactive
same,half-life,in vivo,~1 h
same,activity at rat mGlu1 compared with human mGlu1,rat mGlu1,little difference across species
same,clearance,[5],moderate to high
same,volume of distribution,[5],moderate
same,responses in radioligand binding panel of 68 targets,[6],no significant responses
